Reference: patent publication US11413280B2 (The Board of Trustees of the Leland Stanford Junior …, priority 2017, dated 2022)
Entries after “also recorded” stand apart in the source; their conditions may differ.

Key:
PAEC [1] = assay: γH2AX staining (DNA damage); assay type: cell-based, human; details: siBMPR2 and siFHIT PAEC, 10 μM Enzastaurin for 24 hours
Experimental: Assays were conducted according to the manufacturer's instructions and as previously described(E1,E9).
Quantified area=% of cells that show nuclear γH2AX staining quantified with automated software (white nuclei=positive stain, grey nuclei=background stain). […] (n=3). […] (n=3).
As a cumulative viability measurement, we quantified caspase3/7 activity, using the luminescent Caspase-Glo®3/7 assay(36) and DNA damage, using histone H2AX phosphorylation by immunofluorescence and quantification as nuclear area staining (%) by confocal microscopy(34, 35, 37). […] PAEC proliferation was assessed via an MTT proliferation assay and hemocytometer cell counts(36).

[2] = system: SUGEN5416/Hypoxia/Normoxia rats; assay: SUGEN5416/Hypoxia/Normoxia rat model of experimental PH; assay type: in vivo
Experimental: Experimental PAH was induced in male Sasco Sprague Dawley rats by subcutaneous injection of 20 mg/kg body weight SU5416. […] Echocardiography was performed to assess development of RV hypertrophy and Ejection Fraction. Right Ventricular (RV) Systolic Pressure was measured through right jugular vein catheterization and RV hypertrophy was assessed by the weight ratio of the RV to left ventricle+septum. Vessel loss and muscularization of lung vessels were visualized by MOVAT pentachrome stain. […] FIG. 4F, Representative MOVAT lung histology. Fhit homozygous (−/−) mice were obtained from Kay F. Huebner (Ohio State University). Bmpr2+/− mice were a gift from Marlene Rabinovitch (Stanford University). Adult wildtype C57BL/6 mice, Bmpr2+/− or Fhit−/− mice at 8-10 weeks of age were housed in chronic hypoxia (10% O2) for 3 weeks, followed by a recovery period of 4 weeks in normoxia (21% O2). […] Development of experimental PH was induced in adult Sprague Dawley rats (8 weeks old, 180-220 g) through a subcutaneous dose of the VEGFR-2 inhibitor SUGEN5416 (20 mg/kg body weight), followed by exposure to chronic hypoxia (10% O2) for 3 weeks and normoxia for 5 weeks (21% O2), as previously described(12). […] Right Ventricular (RV) Systolic Pressure was measured through right jugular vein catheterization, and RV hypertrophy (RVH) was assessed by the weight ratio of the RV to left ventricle and septum (LV+S). Murine and rat lung tissue was fixed in paraformaldehyde (PFA) for 48 hours and preserved in EtOH. Paraffin embedded lung slides were stained with a Movat pentachrome stain (Histo-Tec, Hayward, Calif.), where vessel loss and muscularization of pulmonary vessels was visualized by light microscopy. Fluorescent immunocytochemistry on lung sections was performed on deparaffinized (Histoclear II, National Diagnostics) tissue sections with primary antibodies for von-Willebrand factor (vWF) and alpha smooth muscle actin (αSMA) following antigen-retrieval. Human PAH lung tissue was stained for anti-BMPR2 (Ab130206, Abcam) and anti-FHIT (kind gift of Kay F. Huebner, Ohio State University). PFA-fixed paraffin-embedded heart tissue was stained with trichrome staining (Histo-Tec, Hayward, Calif.) to visualize fibrotic transformation. Sprague Dawley rats, were subcutaneously injected with 20 mg/kg SUGEN5416 once and housed in chronic hypoxia (10%, 3 weeks), followed by 5 weeks in normoxia as previously described(41). […] Hemodynamic assessment of the animals (echocardiography, right heart catheter) was performed before sacrifice and tissue collection. […] Experimental PH was induced in male Sprague Dawley rats by subcutaneous injection of 20 mg/kg body weight SU5416. […] FIG. 11F, Representative MOVAT lung histology, highlighting large pulmonary vessels.

miR17-5 = assay: Relative miR17-5 expression in PAECs (qPCR); assay type: cell-based, human; details: 15 μM Enzastaurin 24 hours
[3] = system: hypoxia-induced experimental PAH in C57BL/6 and BMPR2+/− C57BL/6 mice; assay: Hypoxia-induced experimental PAH in wildtype and Bmpr2+/− mice; assay type: in vivo, mouse
Experimental: Right Ventricular (RV) Systolic Pressure was measured through right jugular vein catheterization and RV hypertrophy was assessed by the weight ratio of the RV to left ventricle+septum. Vessel loss and muscularization of lung vessels were visualized by MOVAT pentachrome stain. […] Arrows indicate vessel position. FIG. 3F, Representative MOVAT lung histology depicting vessel structure. Arrows indicate vessel position.
Fhit homozygous (−/−) mice were obtained from Kay F. Huebner (Ohio State University). Bmpr2+/− mice were a gift from Marlene Rabinovitch (Stanford University). Adult wildtype C57BL/6 mice, Bmpr2+/− or Fhit−/− mice at 8-10 weeks of age were housed in chronic hypoxia (10% O2) for 3 weeks, followed by a recovery period of 4 weeks in normoxia (21% O2). […] Development of experimental PH was induced in adult Sprague Dawley rats (8 weeks old, 180-220 g) through a subcutaneous dose of the VEGFR-2 inhibitor SUGEN5416 (20 mg/kg body weight), followed by exposure to chronic hypoxia (10% O2) for 3 weeks and normoxia for 5 weeks (21% O2), as previously described(12). […] Right Ventricular (RV) Systolic Pressure was measured through right jugular vein catheterization, and RV hypertrophy (RVH) was assessed by the weight ratio of the RV to left ventricle and septum (LV+S).
FIG. 24E, Representative MOVAT lung histology. Arrows indicate vessel position. FIGS. 24F-24G, Representative MOVAT lung histology of large (FIG. 24F) and small vessels (FIG. 24G) respectively. Arrows indicate vessel position.

miR27a = assay: Relative miR27a expression in PAECs (qPCR); assay type: cell-based, human; details: 15 μM Enzastaurin 24 hours
PAEC [4] = assay: Trypan Blue viability assay and total cell counts; assay type: cell-based, human
[5] = 5 mg/kg daily oral gavage for 3 weeks, vs vehicle
[6] = 5 mg/kg/day oral gavage for 3 weeks, qPCR
[7] = 3 weeks hypoxia, 5 mg/kg daily by mini-osmotic pump, C57BL/6 and BMPR2+/− mice
[8] = 3 weeks hypoxia, 15 mg/kg/day by mini-osmotic pump, Bmpr2+/− and wildtype mice

Q: What does the source list for `Cn1cc(C2=C(c3cn(C4CCN(Cc5ccccn5)CC4)c4ccccc34)C(=O)NC2=O)c2ccccc21` [Enzastaurin, 3-(1-methyl-1H-indol-3-yl)-4-[1-[1-(pyridin-2-ylmethyl)piperidin-4-yl]-1H-indol-3-yl]-1H-pyrrole-2,5-dione]?
A: DNA damage (nuclear γH2AX staining) induced by FHIT or BMPR2-loss (PAEC [1]): significantly attenuated; Cardiac output ([2]; 5 mg/kg daily oral gavage): improves; Cardiac / RV fibrosis [2, 5]: reverses; also recorded: potently reduced; Full or partial remodeling / muscularization of small and large vessels [2, 5]: substantially and significantly reversed; also recorded: potently reduced; Loss of alveolar wall (AW) and alveolar duct (AD) pulmonary vessels [2, 5]: substantially and significantly reversed; Right ventricle hypertrophy (RVH) [2, 5]: lower; also recorded: potently reduced; Vascular occlusion [2, 5]: reverses; also recorded: nearly entirely reversed; also recorded: significantly less evidence; Right ventricle systolic pressure (RVSP) ([2]; 5 mg/kg daily oral gavage for 3 weeks, vs vehicle treated controls with experimental PAH): lower; Emphysematous changes (linear intercept analysis of MOVAT lung histology) ([2]; 5 mg/kg daily oral gavage, vs untreated controls): significantly less evidence; Reduction of RVSP ([2]; 5 mg/kg/day oral gavage for 3 weeks): over 30 mmHg; BMPR2 expression in whole lung [2, 6]: increased; FHIT expression in whole lung [2, 6]: increased; LVEF (%) by Echocardiography ([2]; before and after 3 weeks of 5 mg/kg daily oral gavage): improvement; SUGEN5416/Hypoxia/Normoxia-induced lung and RV damage ([2]; low-dose Enzastaurin (5 mg/kg/day)): potently reversed; siFHIT-mediated increase in miR17-5 expression (miR17-5): inhibited; Hypoxia-induced PH (changes in RVSP, RVH and pulmonary physiology) ([3]; 2-week treatment, 15 mg/kg/day, Bmpr2+/− and wild-type C57BL/6 mice): attenuated; Right ventricle systolic pressure (RVSP) ([3]; 3 weeks hypoxia, 5 mg/kg daily by mini-osmotic pump, vs hypoxia vehicle control): partial reduction; Full or partial muscularization of AW and AD vessels [3, 7]: significantly ameliorated; Loss of alveolar wall (AW) and alveolar duct (AD) pulmonary vessels [3, 7]: significantly ameliorated; Right ventricle (RV) hypertrophy (RV/LV+S) [3, 7]: substantial reduction; Muscularization of distal vessels [3, 8]: prevented; RVH increase [3, 8]: prevented; RVSP increase [3, 8]: prevented; Vascular rarefaction [3, 8]: prevented; siFHIT-mediated increase in miR27a expression (miR27a): inhibited; Total cell counts (PAEC [4]; Enzastaurin up to 50 μM): increased cell numbers; Cell toxicity by Trypan Blue viability assay (PAEC [4]; varying concentrations of Enzastaurin): did not elicit cell toxicity
